Data: ChEMBL document CHEMBL3137356, “MMV Box Cryptosporidium parvum screening set”

Test system: Cryptosporidium parvum
Assay: MMV: Cryptosporidium parvum oocysts (Iowa Strain) were prepared for use by treatment with 10 mM HCl (37 degrees C, 10 min) followed by 2 mM sodium taurocholate in phosphate-buffered saline (PBS) with Ca2+ and Mg2+ (16 degrees C, 10 min) in order to stimulate excystation. The high-throughput screen was carried out by inoculating >90% confluent human ileocecal adenocarcinoma (HCT-8) cells (ATCC) with ~5.5 x 10^3 primed oocysts per well. Experimental compounds or DMSO (vehicle) were added three hours after infection, and cells were incubated for 48 hours.
Format: functional

Row | SMILES | Inhibition
1 | COc1cccc(NC(=O)[C@H](C(C)C)n2c(=O)[nH]c3ccccc3c2=O)c1 | 8.977%
2 | CCOc1ccc(CN2CCN(CC(O)COc3ccc(OCC(O)CN4CCN(Cc5ccc(OCC)cc5)CC4)cc3)CC2)cc1 (centres undefined) | 1.883%
3 | CCOC(=O)c1c(C)n(-c2ccccc2)c2ccc(OC(=O)c3cc(OC)c(OC)c(OC)c3)cc12 | 4.591%
4 | CCCCOc1ccc(C(=O)Nc2cc(C)on2)cc1 | -8.82%
5 | COc1cccc(NC(=O)Cn2c(C)c(C#N)c3ccccc32)c1 | 14.16%
6 | CCOC(=O)C1=C(C)N=c2sc(=Cc3ccccc3O)c(=O)n2C1c1ccc(OC)c2ccccc12 (centres undefined) | -32.82%
7 | COc1cc(SC)ccc1C(=O)N1CCCC(C)C1 (centres undefined) | -12.18%
8 | Cc1cc(NC(=O)C2c3ccccc3C(=O)N(CC(C)C)C2c2cccs2)no1 (centres undefined) | -19.27%
9 | OC1=C2C(=Nc3ccccc3SC2c2ccc(Br)cc2)c2ccccc21 (centres undefined) | 2.929%
10 | Cc1ccc(-c2cc3c(SCC(=O)Nc4cc(C(F)(F)F)ccc4Cl)nccn3n2)cc1 | -45.33%
11 | CCCn1c(=N)c(C(=O)NC2CCCCC2)cc2c(=O)n3cccc(C)c3nc21 | -27.29%
12 | Cc1ccc(Nc2nc(N)c3ccccc3n2)cc1Cl | 40.42%
13 | Cc1ccc(Cn2c(N3CCC(C(=O)NCc4cccs4)CC3)nc3ccccc32)cc1 | -4.981%
14 | Cc1ccc2nc(C)cc(Nc3cccc(C(F)(F)F)c3)c2c1.Cl | 53.25%
15 | CCOc1cc2c(cc1OCC)C(c1cc(Cl)ccc1O)NCC2 (centres undefined) | -2.297%
16 | Cc1cc(N2CCN(C3CCCC3)CC2)n2c(nc3ccccc32)c1C#N | -41.28%
17 | COc1ccc2nc(N)nc(C)c2c1 | 15.73%
18 | COc1ccc(CCn2c(=N)c(C(=O)NCc3cccnc3)cc3c(=O)n4cccc(C)c4nc32)cc1 | 0.9407%
19 | CC1CC2=C(CC1CNCCCN(C)C)C(C)(C)CCC2 (centres undefined) | 42.26%
20 | CCN1CCCC1CNc1[nH]cnc2c3cc(Cl)ccc3nc1-2 (centres undefined) | -14.57%
21 | Cc1cc(C)c2nc(N3CCC(C(=O)NCCCN4CCC(N5CCCCC5)CC4)CC3)sc2c1 | -56.98%
22 | COc1ccc2sc(N(Cc3cccnc3)C(=O)c3ccc(C#N)cc3)nc2c1 | 39.49%
23 | O=C(NNc1cc(N2CCCC2)nc(N2CCCC2)n1)c1ccccc1 | -52.02%
24 | O=C(Nc1ccsc1C(=O)NC1CCCCC1)c1ccc(F)cc1 | -24.81%
25 | COc1ccc(-c2nc(NC(=O)CS(=O)(=O)c3ccc(F)cc3)sc2C)cc1 | -22.95%

Row | SMILES | Inhibition
26 | COc1ccc(C(C)=O)cc1N1C(=O)C2C(C1=O)C1(c3ccccc3)C(=O)C2(c2ccccc2)C(c2ccc(C)cc2)=C1c1ccc(C)cc1 (centres undefined) | 5.543%
27 | O=C(NC(c1ccccc1)c1ccc2cccnc2c1O)c1ccccc1 (centres undefined) | 59.29%
28 | COc1ccccc1N1CCN(C(CNS(=O)(=O)c2ccc(Cl)cc2)c2cccnc2)CC1 (centres undefined) | 38.78%
29 | CC1CN(C(=O)c2sc3ccccc3c2Cl)CC(C)O1 (centres undefined) | 27%
30 | CC(C)(C)c1ccc(C2CC3=Nc4ccccc4N(C(=O)c4ccccc4Cl)C(c4ccc(F)cc4)C3=C(O)C2)cc1 (centres undefined) | 20.41%
31 | COc1ccc(-c2nonc2NC(=O)c2cccc(C)c2)cc1OC | 4.698%
32 | CCCCCC(=O)N1c2ccccc2N=C2CC(c3ccc(OC)c(OC)c3)CC(O)=C2C1c1ccc(C(F)(F)F)cc1 (centres undefined) | -9.957%
33 | O=C(NCC1Cc2cccc(-c3ccncc3)c2O1)c1csc2c1CCCC2 (centres undefined) | 13.55%
34 | COc1ccc(Br)cc1C1Nc2ccc3ccccc3c2C2=C1C(=O)CC(c1ccccc1)C2 (centres undefined) | -67.54%
35 | COc1ccc(C2NCCc3c2[nH]c2ccccc32)cc1CN1CCN(c2ccc(F)cc2)CC1.Cl (centres undefined) | -2.167%
36 | COc1ccc(C2N(C)c3ccccc3N2C)cc1 | -12.31%
37 | Cc1cc(NC(=O)c2ccc(-c3ccccc3)cc2)no1 | 13.55%
38 | O=C(Nc1cccc(C(F)(F)F)c1)c1cc(Cl)ccc1O | 41.48%
39 | CCC(=O)Nc1nnc(Cc2ccc(OC)c(OC)c2)s1 | 5.406%
40 | Cc1cc(C)c2c(c1)OCN(Cc1ccccc1Cl)C2 | -66.49%
41 | COc1ccc(C(=O)C(CCC(CNC(C)(C)C)C(=O)c2ccc(OC)cc2)CNC(C)(C)C)cc1 (centres undefined) | -20.25%
42 | Cl.N=c1n(CCN2CCCCC2)c2ccccc2n1CC(O)c1cccc(Br)c1 (centres undefined) | 3.872%
43 | COc1ccc2nc(C)cc(Nc3ccc(Cl)cc3)c2c1 | -41.72%
44 | Cc1ccc(-c2cc(C(=O)Nc3ccc(S(=O)(=O)N4CCCCC4)cc3)[nH]n2)c(O)c1 | -59.17%
45 | C=CC12CCN(CC1)C(C(O)c1ccnc3ccc(OC)cc13)C2.Cl (centres undefined) | 1.246%
46 | Cc1c(C)n(Cc2ccc(F)cc2)c2ccc(C(=O)NCc3ccco3)cc12 | -17.08%
47 | CCN(CC)CCn1c(=N)n(CC(O)c2ccc(Cl)c(Cl)c2)c2ccccc21.Cl (centres undefined) | 14.91%
48 | CCC1(C)CC(CCNCc2ccccc2O)(c2ccc(C)cc2)CCO1 (centres undefined) | -2.346%
49 | CCOc1cc2c(cc1OCC)C(c1cc(C)c(O)c(C)c1)NCC2.Cl (centres undefined) | 13.77%
50 | Cc1sc2ncnc(Sc3nc4ccccc4[nH]3)c2c1C | 20.44%

Row | SMILES | Inhibition
51 | Cc1ccc2c(C)nc(Nc3nc(C)cc(-c4ccccc4)n3)nc2c1 | -62.95%
52 | Brc1ccc(Nc2nc3ccccc3nc2Nc2ccc(Br)cc2)cc1 | -31.05%
53 | CN(C)CCNc1cc(-c2ccccc2)nc2ccccc12 | -2.54%
54 | OC(CNC1CCCC1)Cn1c2ccccc2c2ccccc21 (centres undefined) | -40.56%
55 | CCOC(=O)c1ccc2nc(-c3ccccc3)cc(O)c2c1 | -8.454%
56 | COCCNCC(O)Cn1c2ccc(Cl)cc2c2cc(Cl)ccc21 (centres undefined) | -20.11%
57 | CN1CCN(c2c3c(c(C#N)c4nc5ccccc5n24)CCC3)CC1 | -1.609%
58 | CCCCCCn1c(=N)n(CC(O)COc2cccc(C)c2)c2ccccc21.Cl (centres undefined) | 6.838%
59 | CCOc1c(Cl)cc(CNCC(O)c2ccccc2)cc1OC (centres undefined) | -11.22%
60 | COc1ccccc1NC1=C(N2CCCCC2)C(=O)c2ccccc2C1=O | -35.82%
61 | COc1ccc(CNC(=O)c2cc3c(=O)n4ccccc4nc3n(CCc3ccccc3)c2=N)cc1 | 20.87%
62 | Cl.OC(CNCc1ccccc1)Cn1c2ccccc2c2ccccc21 (centres undefined) | -37.25%
63 | O=C(Nc1ccc(-c2nc3ccccc3[nH]2)cc1)c1ccc(Cl)c(Cl)c1 | 10.57%
64 | Cc1cc(NCCN2CCCCC2)c2ccc3ccccc3c2n1 | -25.58%
65 | CCCCCCc1cc2cc(-c3csc(C=Cc4ccccc4)n3)c(=O)oc2cc1O | 10.86%
66 | CCOc1cc(Cl)c(C(C)NC(=O)c2cccc(OC)c2)cc1OCC (centres undefined) | -11.62%
67 | O=C(Nc1ccc(CN2CCOCC2)cc1)c1ccc(-c2ccc(Br)cc2)o1 | 0.1242%
68 | CCOc1cccc2sc(N(Cc3cccnc3)C(=O)C3CCCCC3)nc12 | -38.34%
69 | CCCCCCc1cc(O)c2c3c(c(=O)oc2c1)CCC(C)C3 (centres undefined) | -17.49%
70 | COc1ccc2c(c1)OC(O)(C(F)(F)C(F)(F)F)CC2=O (centres undefined) | 33.72%
71 | Cc1ccc(Nc2nc(NCCO)c3ccccc3n2)cc1C | 34.33%
72 | CCOc1ccc(C2N(C)c3ccccc3N2C)cc1 | -19.63%
73 | CCCN(CCC)CC(O)COc1ccccc1C(=O)Nc1ccccc1 (centres undefined) | 46.62%
74 | CCOc1ccc2nc(C)cc(Nc3ccc(Br)cc3)c2c1 | -4.208%
